In EPA's ToxValDB 9.5 (doi:10.2903/j.efsa.2013.3270):

What was measured:
Typhlodromus pyri = assay: LR50; higher = less toxic; settings: not reported; mortality
Aphidius rhopalosiphi = assay: LR50; higher = less toxic; settings: not reported; mortality
Pimephales promelas = settings: chronic/long-term; duration: 35 days; other
Folsomia candida = settings: chronic/long-term; duration: 28 days
Oncorhynchus mykiss = settings: acute; duration: 96 hours; mortality
Anas platyrhynchos = settings: chronic/long-term
Colinus virginianus = settings: acute, oral, mortality
Tagia sp. = settings: acute; duration: 14 days; mortality
Apis mellifera = settings: acute, duration: 48 hours, mortality
Daphnia magna = settings: chronic/long-term; duration: 21 days; reproduction

SMILES: COC(=O)c1csc(C)c1S(=O)(=O)NC(=O)n1nc(OC)n(C)c1=O [Thiencarbazone-methyl]
- LR50 (Typhlodromus pyri): > 0.45 g/ha
- LR50 (Aphidius rhopalosiphi): > 45 g/ha
- NOEC (Pimephales promelas): 4.8 mg/L
- NOEC (Folsomia candida): 1000 mg/kg
- LC50 (Oncorhynchus mykiss): > 104 mg/L
- NOEL (Anas platyrhynchos): 24 mg/kg-day
- LD50 (Colinus virginianus; diet): > 699 mg/kg-day
- LD50 (Colinus virginianus): > 2000 mg/kg-day
- LC50 (Tagia sp.): > 1000 mg/kg
- LD50 (Apis mellifera; dermal): > 200 µg/piece
- LD50 (Apis mellifera; oral, unspecified): > 199 µg/piece
- LD50 (Rattus norvegicus; acute, oral, mortality): > 2000 mg/kg-day
- NOEL (Rattus norvegicus; chronic): 946 mg/kg-day
- NOAEL (Rattus norvegicus; chronic, duration: 2 years): 22.8 mg/kg-day
- NOAEL (Rattus norvegicus; subchronic, duration: 90 days, oral): 24.7 mg/kg-day
- NOEC (Daphnia magna): 3.54 mg/L
